# What was measured:
# Format in all cases: in vivo
# [1] = system: ducksalad (Heteranthera limosa); assay: Test B flooded paddy test; details: Heteranthera limosa, Flood, 250 g ai/ha; scale of 0 to 100 where 0 is no effect and 100 is complete control; read-out: Ducksalad plant response rating
# Summary of the method: (§1)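 2-leaf plants; pots flooded 3 cm over soil; cpd added to paddy water; depth held; greenhouse 13–15 d; visual rating vs controls, 0 = no effect, 100 = complete control.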
# [2] = system: rice (Oryra sativa); assay: Test B flooded paddy test; details: Oryza sativa, Flood, 250 g ai/ha; scale of 0 to 100 where 0 is no effect and 100 is complete control; read-out: Rice plant response rating
# Summary of the method: as §1
# [3] = system: barnyardgrass (Echinochloa crus-galli); assay: Test B flooded paddy test; details: Echinochloa crus-galli, Flood, 250 g ai/ha; scale of 0 to 100 where 0 is no effect and 100 is complete control; read-out: Barnyardgrass plant response rating
# Summary of the method: as §1
# [4] = system: sedge, umbrella (small-flower umbrella sedge, Cyperus difformis); assay: Test B flooded paddy test; details: Cyperus difformis, Flood, 250 g ai/ha; scale of 0 to 100 where 0 is no effect and 100 is complete control; read-out: Sedge, Umbrella plant response rating
# Summary of the method: as §1
# [5] = system: corn (Zea mays); assay: Test A postemergence; details: Zea mays, post-emergence, 240 h, 125 g ai/ha, Postemergence; visual injury after approximately 10 d; 0 to 100 scale where 0 is no effect and 100 is complete control
# Summary of the method: (§2)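 Preemergence directed soil spray on seeded pots, or postemergence application to plants 2–10 cm, one- to two-leaf. Solvent mixture non-phytotoxic, with surfactant. Scored ~10 d later, visually, 0–100 vs untreated.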
# [6] = system: giant foxtail (Setaria faberii); assay: Test A postemergence; details: Setaria faberi, post-emergence, 240 h, 125 g ai/ha, Postemergence; visual injury after approximately 10 d; 0 to 100 scale where 0 is no effect and 100 is complete control; read-out: Plant response rating, Foxtail, Giant
# Summary of the method: as §2
# [7] = system: Galium (catchweed bedstraw, Galium aparine); assay: Test A postemergence; details: Galium, post-emergence, 240 h, 125 g ai/ha, Postemergence; visual injury after approximately 10 d; 0 to 100 scale where 0 is no effect and 100 is complete control; read-out: Plant response rating, Galium
# Summary of the method: as §2
# [8] = system: Kochia (Kochia scoparia); assay: Test A postemergence; details: Bassia scoparia, post-emergence, 240 h, 125 g ai/ha, Postemergence; visual injury after approximately 10 d; 0 to 100 scale where 0 is no effect and 100 is complete control; read-out: Plant response rating, Kochia
# Summary of the method: as §2
# [9] = system: ryegrass, Italian (Italian ryegrass, Lolium multiflorum); assay: Test A postemergence; details: Lolium multiflorum, post-emergence, 240 h, 125 g ai/ha, Postemergence; visual injury after approximately 10 d; 0 to 100 scale where 0 is no effect and 100 is complete control; read-out: Plant response rating, Ryegrass, Italian
# Summary of the method: as §2
# [10] = system: barnyardgrass (Echinochloa crus-galli); assay: Test A postemergence; details: Echinochloa crus-galli, post-emergence, 240 h, 125 g ai/ha, Postemergence; visual injury after approximately 10 d; 0 to 100 scale where 0 is no effect and 100 is complete control; read-out: Plant response rating, Barnyardgrass
# Summary of the method: as §2
# [11] = system: wheat (Triticum aestivum); assay: Test A postemergence; details: Triticum aestivum, post-emergence, 240 h, 125 g ai/ha, Postemergence; visual injury after approximately 10 d; 0 to 100 scale where 0 is no effect and 100 is complete control; read-out: Plant response rating, Wheat
# Summary of the method: as §2
# [12] = system: ragweed (common ragweed, Ambrosia elatior); assay: Test A postemergence; details: Ambrosia artemisiifolia, post-emergence, 240 h, 125 g ai/ha, Postemergence; visual injury after approximately 10 d; 0 to 100 scale where 0 is no effect and 100 is complete control; read-out: Plant response rating, Ragweed
# Summary of the method: as §2
# [13] = system: blackgrass (Alopecurus myosuroides); assay: Test A postemergence; details: Alopecurus myosuroides, post-emergence, 240 h, 125 g ai/ha, Postemergence; visual injury after approximately 10 d; 0 to 100 scale where 0 is no effect and 100 is complete control; read-out: Plant response rating, Blackgrass
# Summary of the method: as §2
# [14] = system: pigweed (Amaranthus retroflexus); assay: Test A postemergence; details: Amaranthus retroflexus, post-emergence, 240 h, 125 g ai/ha, Postemergence; visual injury after approximately 10 d; 0 to 100 scale where 0 is no effect and 100 is complete control; read-out: Plant response rating, Pigweed
# Summary of the method: as §2
# [15] = system: giant foxtail (Setaria faberii); assay: Test A preemergence; details: Setaria faberi, pre-emergence, 240 h; for pest or weed control at 125 g/ha: 125 g ai/ha, Preemergence, visual injury rating after approximately 10 d, read-out: Foxtail, Giant plant response rating (0 to 100 scale, 0 is no effect, 100 is complete control); for pest or weed control at 500 g/ha: 500 g ai/ha, preemergence, visual injury rating about 10 d after treatment, 0 to 100 scale (0 no effect, 100 complete control), read-out: Foxtail, Giant plant response rating
# Summary of the method: as §2
# [16] = system: Kochia (Kochia scoparia); assay: Test A preemergence; details: Bassia scoparia, pre-emergence, 240 h; for pest or weed control at 125 g/ha: 125 g ai/ha, Preemergence, visual injury rating after approximately 10 d, read-out: Kochia plant response rating (0 to 100 scale, 0 is no effect, 100 is complete control); for pest or weed control at 500 g/ha: 500 g ai/ha, preemergence, visual injury rating about 10 d after treatment, 0 to 100 scale (0 no effect, 100 complete control), read-out: Kochia plant response rating
# Summary of the method: as §2
# [17] = system: ryegrass, Italian (Italian ryegrass, Lolium multiflorum); assay: Test A preemergence; details: Lolium multiflorum, pre-emergence, 240 h; for pest or weed control at 125 g/ha: 125 g ai/ha, Preemergence, visual injury rating after approximately 10 d, read-out: Ryegrass, Italian plant response rating (0 to 100 scale, 0 is no effect, 100 is complete control); for pest or weed control at 500 g/ha: 500 g ai/ha, preemergence, visual injury rating about 10 d after treatment, 0 to 100 scale (0 no effect, 100 complete control), read-out: Ryegrass, Italian plant response rating
# Summary of the method: as §2
# [18] = system: barnyardgrass (Echinochloa crus-galli); assay: Test A preemergence; details: Echinochloa crus-galli, pre-emergence, 240 h; for pest or weed control at 125 g/ha: 125 g ai/ha, Preemergence, visual injury rating after approximately 10 d, read-out: Barnyardgrass plant response rating (0 to 100 scale, 0 is no effect, 100 is complete control); for pest or weed control at 500 g/ha: 500 g ai/ha, preemergence, visual injury rating about 10 d after treatment, 0 to 100 scale (0 no effect, 100 complete control), read-out: Barnyardgrass plant response rating
# Summary of the method: as §2
# [19] = system: ragweed (common ragweed, Ambrosia elatior); assay: Test A preemergence; details: Ambrosia artemisiifolia, pre-emergence, 240 h; for pest or weed control at 125 g/ha: 125 g ai/ha, Preemergence, visual injury rating after approximately 10 d, read-out: Ragweed plant response rating (0 to 100 scale, 0 is no effect, 100 is complete control); for pest or weed control at 500 g/ha: 500 g ai/ha, preemergence, visual injury rating about 10 d after treatment, 0 to 100 scale (0 no effect, 100 complete control), read-out: Ragweed plant response rating
# Summary of the method: as §2
# [20] = system: pigweed (Amaranthus retroflexus); assay: Test A preemergence; details: Amaranthus retroflexus, pre-emergence, 240 h; for pest or weed control at 125 g/ha: 125 g ai/ha, Preemergence, visual injury rating after approximately 10 d, read-out: Pigweed plant response rating (0 to 100 scale, 0 is no effect, 100 is complete control); for pest or weed control at 500 g/ha: 500 g ai/ha, preemergence, visual injury rating about 10 d after treatment, 0 to 100 scale (0 no effect, 100 complete control), read-out: Pigweed plant response rating
Compound,pest or weed control at 250 g/ha [1],pest or weed control at 250 g/ha [2],pest or weed control at 250 g/ha [3],pest or weed control at 250 g/ha [4],"Corn plant response rating (crop injury, 0 = no effect, 100 = complete kill) at 125 g/ha [5]",pest or weed control at 125 g/ha [6],pest or weed control at 125 g/ha [7],pest or weed control at 125 g/ha [8],pest or weed control at 125 g/ha [9],pest or weed control at 125 g/ha [10],plant injury at 125 g/ha [11],pest or weed control at 125 g/ha [12],pest or weed control at 125 g/ha [13],pest or weed control at 125 g/ha [14],pest or weed control at 125 g/ha [15],pest or weed control at 500 g/ha [15],pest or weed control at 125 g/ha [16],pest or weed control at 500 g/ha [16],pest or weed control at 125 g/ha [17],pest or weed control at 500 g/ha [17],other results
CCOc1cccc([C@H]2CNC(=O)[C@@H]2C(=O)Nc2cccc(F)c2F)c1 [Compound 950],95%,0%,65%,0%,0%,0%,20%,0%,20%,90%,0%,0%,0%,0%,60%,90%,50%,60%,20%,70%,pest or weed control at 125 g/ha [18]: 100%; pest or weed control at 500 g/ha [18]: 100%; pest or weed control at 125 g/ha [19]: 0%; pest or weed control at 500 g/ha [19]: 20%; pest or weed control at 125 g/ha [20]: 0%; pest or weed control at 500 g/ha [20]: 0%
CCOc1cccc([C@H]2CNC(=O)[C@@H]2C(=O)Nc2ccc(F)cc2F)c1 [Compound 951],90%,0%,30%,0%,0%,0%,0%,0%,0%,70%,0%,0%,0%,0%,70%,70%,0%,20%,0%,0%,pest or weed control at 125 g/ha [18]: 90%; pest or weed control at 500 g/ha [18]: 90%; pest or weed control at 125 g/ha [19]: 0%; pest or weed control at 500 g/ha [19]: 0%; pest or weed control at 125 g/ha [20]: 0%; pest or weed control at 500 g/ha [20]: 0%
CCOc1cccc([C@H]2CN(C)C(=O)[C@@H]2C(=O)Nc2ccccc2F)c1 [Compound 955],90%,0%,70%,0%,0%,80%,20%,20%,30%,90%,0%,0%,0%,0%,100%,100%,30%,70%,70%,60%,pest or weed control at 125 g/ha [18]: 100%; pest or weed control at 500 g/ha [18]: 100%; pest or weed control at 125 g/ha [19]: 0%; pest or weed control at 500 g/ha [19]: 30%; pest or weed control at 125 g/ha [20]: 0%; pest or weed control at 500 g/ha [20]: 0%
